We go through 18 molecules from patent US20230278984A1 (Global Blood Therapeutics, Inc., priority 2020, published 2023).

For assay [1], the system named is mouse model of beta-thalassemia. The following applies: cited from earlier work.
Assay [2] has as its target T1, Human pyruvate kinase R (PKR) (Homo sapiens, UniProt P30613).
T1 construct: Human pyruvate kinase R (PKR), residues 14-574; 6x-His (N, cleaved yes); 8x-Arg (N, cleaved yes); SUMO (N, cleaved yes); host or cells: E. coli
The assay can be described thus: Biochemical assay for activation of pyruvate kinase R (Kinase-Glo luminescence measurement of ATP generation). Conditions: for AC50: PKR biochemical assay, 0.1 nM PKR, 0.3 mM ADP, 2 mM FBP, 0.1 mM PEP; for Emax: maximal activation level relative to the activation level achieved by the literature compound AG-348 @ 10 μM. The method in brief:
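Recombinant human PKR (residues 14-574), E. coli-expressed with His-Arg-SUMO tag removed, purified by Ni-NTA, anion exchange and size exclusion. Activation measured as ATP generation via Kinase-Glo luminescence.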
A general note: Kinase-Glo measures the ATP left after a reaction by luminescence.

T1 sequence (P30613 14-574): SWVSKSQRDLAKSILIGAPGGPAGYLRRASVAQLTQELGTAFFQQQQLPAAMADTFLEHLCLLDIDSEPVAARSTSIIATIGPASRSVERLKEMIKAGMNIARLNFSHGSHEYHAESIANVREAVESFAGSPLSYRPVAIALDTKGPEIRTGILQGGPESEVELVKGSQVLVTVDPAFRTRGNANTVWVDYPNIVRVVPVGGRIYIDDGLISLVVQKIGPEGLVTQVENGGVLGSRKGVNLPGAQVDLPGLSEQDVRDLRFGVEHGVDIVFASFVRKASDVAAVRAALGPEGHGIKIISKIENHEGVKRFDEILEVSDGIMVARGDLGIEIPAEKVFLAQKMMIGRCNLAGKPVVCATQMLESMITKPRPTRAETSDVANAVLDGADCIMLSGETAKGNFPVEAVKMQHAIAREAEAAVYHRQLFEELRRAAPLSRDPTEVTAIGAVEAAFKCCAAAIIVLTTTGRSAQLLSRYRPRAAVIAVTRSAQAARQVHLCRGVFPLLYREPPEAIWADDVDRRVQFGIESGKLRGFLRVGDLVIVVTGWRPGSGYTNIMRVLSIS

`O=C(c1ccc(NS(=O)(=O)c2cccc3cccnc23)cc1)N1CCN(CC2CC2)CC1` [AG-348, Mitapivat]: the “PK activity, ATP levels and RBC parameters” value in assay [1] was “increased PK activity and ATP levels, as well as improved RBC parameters”. For orientation: AC50 means the concentration at which the activity in the assay is half-maximal. Higher therefore signals activity only at high concentration. One may read the Emax as the maximal effect, on the per cent scale that the assay sets. In assay [2], `O=C(NCc1ncnn1-c1ccc(Cl)c(F)c1)NCc1nc(C2CC2)nn1-c1ccc2cccnc2c1` [Compound 91, 1-{[1-(4-chloro-3-fluorophenyl)-1H-1,2,4-triazol-5-yl]methyl}-3-{[3-cyclopropyl-1-(quinolin-7-yl)-1H-1,2,4-triazol-5-yl]methyl}urea] came in with an AC50 of 49 nM and an Emax of 61%.

In assay [2], `O=C(NCc1nnnn1-c1ccc(Cl)c(Cl)c1)NCc1nnnn1-c1ccc(Cl)c(Cl)c1` [Compound 60, 1,3-bis({[1-(3,4-dichlorophenyl)-1H-1,2,3,4-tetrazol-5-yl]methyl})urea] had an AC50 of 180 nM and a maximal effect (Emax) of 82%. In the same order, the values of `Cc1nc(CNC(=O)NCc2n[nH]c(=O)n2-c2ccc(Cl)c(F)c2)n(-c2ccc(Cl)c(F)c2)n1` [Compound 89, 1-{[1-(4-chloro-3-fluorophenyl)-3-methyl-1H-1,2,4-triazol-5-yl]methyl}-3-{[4-(4-chloro-3-fluorophenyl)-5-oxo-4,5-dihydro-1H-1,2,4-triazol-3-yl]methyl}urea] are 31 nM and 91%. Take `CN(Cc1ncnn1-c1ccc(Cl)c(F)c1)C(=O)N(C)Cc1ncnn1-c1ccc(Cl)c(F)c1` [Compound 28, 1,3-bis({[1-(4-chloro-3-fluorophenyl)-1H-1,2,4-triazol-5-yl]methyl})-1,3-dimethylurea]: in assay [2], the half-maximal activity concentration (AC50) was 1200 nM and the maximal effect (Emax) worked out at 29%. On to `O=C(NCc1ncnn1-c1ccc2cccnc2c1)NCc1nc(C2CC2)nn1-c1ccc(Cl)c(F)c1` [Compound 83, 1-{[1-(4-chloro-3-fluorophenyl)-3-cyclopropyl-1H-1,2,4-triazol-5-yl]methyl}-3-{[1-(quinolin-7-yl)-1H-1,2,4-triazol-5-yl]methyl}urea], for which, in assay [2], the activity was half-maximal at 72 nM (AC50) and the Emax came to 83%. Taken in the same sequence, the figures for `Cc1nc(CNC(=O)NCc2nc(C)nn2-c2ccc(Cl)cc2)n(-c2ccc(Cl)cc2)n1` [Compound 73, 1,3-bis({[1-(4-chlorophenyl)-3-methyl-1H-1,2,4-triazol-5-yl]methyl})urea] were 190 nM and 107%.

In assay [2], `Cc1nc(CNC(=O)NCc2nc(CO)nn2-c2ccc(Cl)c(F)c2)n(-c2ccc3cccnc3c2)n1` [Compound 93, 1-{[1-(4-chloro-3-fluorophenyl)-3-(hydroxymethyl)-1H-1,2,4-triazol-5-yl]methyl}-3-{[3-methyl-1-(quinolin-7-yl)-1H-1,2,4-triazol-5-yl]methyl}urea] had an AC50 of 150 nM and a maximal effect (Emax) of 100%. For the molecule `Cc1nc(CN(C)C(=O)NCc2ncnn2-c2ccc3cccnc3c2)n(-c2ccc(Cl)c(F)c2)n1` [Compound 53, 1-{[1-(4-chloro-3-fluorophenyl)-3-methyl-1H-1,2,4-triazol-5-yl]methyl}-1-methyl-3-{[1-(quinolin-7-yl)-1H-1,2,4-triazol-5-yl]methyl}urea], in assay [2], the AC50 is 120 nM and the Emax turned out to be 73%. Regarding `CN(Cc1ncnn1-c1ccc(Cl)c(F)c1)C(=O)NCc1ncnn1-c1ccc(Cl)c(F)c1` [Compound 27, 1,3-bis({[1-(4-chloro-3-fluorophenyl)-1H-1,2,4-triazol-5-yl]methyl})-1-methylurea], in assay [2], the AC50 was 5.4 nM and the Emax worked out at 33%. Take `O=C(NCc1ncnn1-c1cc(F)cc(Cl)c1)NCc1ncnn1-c1cc(F)cc(Cl)c1` [Compound 68, 1,3-bis({[1-(3-chloro-5-fluorophenyl)-1H-1,2,4-triazol-5-yl]methyl})urea]: in assay [2], the activity was half-maximal at 3100 nM (AC50) and the Emax turned out to be 65%. In assay [2], `COCCc1nc(CNC(=O)NCc2ncnn2-c2ccc3cccnc3c2)n(-c2ccc(Cl)c(F)c2)n1` [Compound 97, 1-{[1-(4-chloro-3-fluorophenyl)-3-(2-methoxyethyl)-1H-1,2,4-triazol-5-yl]methyl}-3-{[1-(quinolin-7-yl)-1H-1,2,4-triazol-5-yl]methyl}urea] registered an AC50 of 510 nM and an Emax of 92%.

In assay [2], `Cc1nc(CNC(=O)NCc2nc(C)nn2-c2ccc(Cl)c(F)c2)n(-c2ccc(Cl)c(F)c2)n1` [Compound 77, 1,3-bis({[1-(4-chloro-3-fluorophenyl)-3-methyl-1H-1,2,4-triazol-5-yl]methyl})urea] yielded an AC50 of 51 nM and a maximum response (Emax) of 93%. Take `O=C(NCc1ncnn1-c1ccc2ncccc2c1)NCc1ncnn1-c1ccc2ncccc2c1` [Compound 71, 1,3-bis({[1-(quinolin-6-yl)-1H-1,2,4-triazol-5-yl]methyl})urea]: in assay [2], half-maximal activity (AC50) was put at 930 nM and the Emax came to 48%. With `CCN(Cc1ncnn1-c1ccc(Cl)c(F)c1)C(=O)NCc1ncnn1-c1ccc(Cl)c(F)c1` [Compound 30, 1,3-bis({[1-(4-chloro-3-fluorophenyl)-1H-1,2,4-triazol-5-yl]methyl})-1-ethylurea], in assay [2], the AC50 was found to be 18 nM and the Emax came out at 48%. In the same order, the values of `O=C1N(Cc2nnnn2-c2ccc(Cl)cc2)CCCN1Cc1nnnn1-c1ccc(Cl)cc1` [Compound 3, 1,3-bis({[1-(4-chlorophenyl)-1H-1,2,3,4-tetrazol-5-yl]methyl})-1,3-diazinan-2-one] are 6000 nM and 53%. In the same order, the values of `Cc1nc(CNC(=O)NCc2ncnn2-c2cccnc2)n(-c2ccc(Cl)c(F)c2)n1` [Compound 129, 1-{[1-(4-chloro-3-fluorophenyl)-3-methyl-1H-1,2,4-triazol-5-yl]methyl}-3-{[1-(pyridin-3-yl)-1H-1,2,4-triazol-5-yl]methyl}urea] are 430 nM and 72%. In assay [2], `Cc1nc(CNC(=O)NCc2nc(C)nn2-c2ccc(Cl)c(CO)c2)n(-c2ccc(Cl)c(F)c2)n1` [Compound 96, 1-({1-[4-chloro-3-(hydroxymethyl)phenyl]-3-methyl-1H-1,2,4-triazol-5-yl}methyl)-3-{[1-(4-chloro-3-fluorophenyl)-3-methyl-1H-1,2,4-triazol-5-yl]methyl}urea] showed an AC50 of 34 nM and an Emax of 100%.
